Laboratory results: patent US11840686B2, “Modulation of prekallikrein (PKK) expression” (Ionis Pharmaceuticals, Inc., priority 2013, dated 2023)
Strand notation (5' to 3'): a small letter for the sugar, then the base; units joined by * are phosphorothioate-linked, units joined directly phosphodiester-linked; [ ] holds rarer units or linkages, { } end groups; capitals alone tell only the bases. e = 2'-O-(2-methoxyethyl) (MOE); [5mC] = 5-methylcytosine; d = 2'-deoxy (DNA)

Tested on: human PKK mRNA
Test: Antisense inhibition of human PKK mRNA in HepaRG cells, 3,000 nM (Example 1)
Type: cell-based
Conditions: Table 4; HepaRG cells, electroporation with 3,000 nM antisense oligonucleotide, approx. 24 hours; PKK mRNA by RT-PCR (RTS3454), relative to untreated control cells
Method in brief: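 HepaRG cells, 20,000 per well, were electroporated with 3,000 nM 5-10-5 MOE gapmer (phosphorothioate, 5-methylcytosine). After about 24 h, PKK mRNA was measured by qRT-PCR with primer probe set RTS3454 and normalised to RIBOGREEN total RNA. Values are percent inhibition versus untreated cells.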

Substance | % inhibition [%]
531171 (antisense eA*eG*eG*e[5mC]*e[5mC]*dT*dG*d[5mC]*d[5mC]*dA*d[5mC]*dA*dG*dG*d[5mC]*e[5mC]*eA*eG*eA*e[5mC]) [compound 531171] | 40
531173 (antisense eA*eA*eA*eA*eT*dA*dA*d[5mC]*dT*dT*d[5mC]*dA*d[5mC]*dT*dA*eG*eA*eG*e[5mC]*eT) [compound 531173] | 22
531174 (antisense eT*eG*eT*eT*eA*dA*dG*dT*dA*dT*dA*dT*dT*dA*dA*e[5mC]*eT*eA*eT*eT) [compound 531174] | 10
531175 (antisense eT*eA*e[5mC]*eT*e[5mC]*dA*dG*dG*dA*dA*dA*dT*dT*dA*dG*eA*eA*eT*eA*eT) [compound 531175] | 25
531176 (antisense eT*eT*eA*eT*eG*dA*dA*dA*d[5mC]*d[5mC]*dT*d[5mC]*dT*dT*dG*eA*eT*eT*eT*eG) [compound 531176] | 0
531177 (antisense eT*eT*e[5mC]*eT*eT*dG*dT*dA*dA*dA*dT*dG*dT*d[5mC]*dT*eG*eA*eA*eT*eT) [compound 531177] | 61
531178 (antisense eA*e[5mC]*e[5mC]*eA*e[5mC]*dA*dG*dG*dA*dA*dA*d[5mC]*dT*dG*dT*eA*eG*e[5mC]*eA*eA) [compound 531178] | 72
531179 (antisense eG*eA*eT*eT*eG*dG*dA*d[5mC]*d[5mC]*d[5mC]*dA*dG*dA*d[5mC]*dA*e[5mC]*eT*eA*eT*eA) [compound 531179] | 57
531180 (antisense e[5mC]*e[5mC]*eT*e[5mC]*eT*dT*dA*dA*dG*dT*d[5mC]*dA*d[5mC]*d[5mC]*dA*eT*eA*eG*eA*e[5mC]) [compound 531180] | 45
531181 (antisense eG*eG*eT*eT*eG*dA*dG*dG*dG*dA*d[5mC]*dA*dG*dA*d[5mC]*eA*e[5mC]*eA*eG*eG) [compound 531181] | 36
531182 (antisense eA*eT*eA*eA*eT*d[5mC]*dA*dT*dG*dA*dT*dT*dT*dA*dT*eT*eT*eT*eG*e[5mC]) [compound 531182] | 34
531183 (antisense e[5mC]*eA*eT*eA*eA*dG*dA*dA*dT*dG*dT*dG*d[5mC]*dA*d[5mC]*eA*e[5mC]*eA*eA*eA) [compound 531183] | 39
531184 (antisense eA*e[5mC]*eT*e[5mC]*eT*dT*dA*dT*dT*dA*dG*d[5mC]*dT*dG*dG*eT*eA*eG*eA*eA) [compound 531184] | 74
531185 (antisense eG*eG*eA*e[5mC]*e[5mC]*dA*dA*dA*dA*d[5mC]*dT*dG*dA*dG*dA*eG*eG*e[5mC]*eA*eG) [compound 531185] | 63
531186 (e[5mC]*e[5mC]*eA*eT*eT*dA*d[5mC]*dT*d[5mC]*dT*d[5mC]*dA*dA*dG*d[5mC]*eT*e[5mC]*e[5mC]*eA*e[5mC]; antisense) [compound 531186] | 75
531187 (eA*eT*e[5mC]*eT*eA*dT*dT*dG*dG*dT*dT*d[5mC]*dA*dG*dG*eA*eG*e[5mC]*e[5mC]*eA; antisense) [compound 531187] | 72
531188 (eG*eT*eT*eA*eA*dA*dA*d[5mC]*dA*dA*d[5mC]*dT*dA*dG*dA*eA*eG*e[5mC]*e[5mC]*eA; antisense) [compound 531188] | 67
531189 (eA*eG*eG*eT*eG*dT*dT*d[5mC]*dT*dT*dG*d[5mC]*dT*dT*dA*eT*e[5mC]*e[5mC]*eT*e[5mC]; antisense) [compound 531189] | 63

Substance | % inhibition [%]
531190 (eG*e[5mC]*eA*eG*eT*d[5mC]*dA*d[5mC]*dT*d[5mC]*d[5mC]*dT*d[5mC]*dT*dT*e[5mC]*e[5mC]*eA*eG*e[5mC]; antisense) [compound 531190] | 59
531191 (eA*eA*eG*eT*eG*dT*dA*dT*dT*dG*d[5mC]*d[5mC]*dT*dA*dG*eA*eT*eT*eT*e[5mC]; antisense) [compound 531191] | 37
531192 (eG*eA*eG*eT*eG*d[5mC]*d[5mC]*dA*dT*d[5mC]*dT*dT*d[5mC]*dT*d[5mC]*eT*eG*e[5mC]*eA*e[5mC]; antisense) [compound 531192] | 61
531193 (eT*eT*eA*eT*eT*d[5mC]*d[5mC]*d[5mC]*dA*dG*d[5mC]*dT*d[5mC]*dT*dA*eA*eA*eA*eT*eA; antisense) [compound 531193] | 23
531194 (e[5mC]*eT*e[5mC]*eA*e[5mC]*dA*dA*dT*dT*d[5mC]*dT*dG*dT*dA*dA*eG*eG*eG*eA*eA; antisense) [compound 531194] | 64
531195 (eA*eT*eA*eA*eA*dA*dT*dA*dT*dA*dT*dT*dA*dA*dG*eG*e[5mC]*eA*eA*e[5mC]; antisense) [compound 531195] | 61
531196 (eT*eT*eG*eA*eG*dT*d[5mC]*dA*dG*dA*d[5mC]*dA*dT*d[5mC]*d[5mC]*eT*eG*eT*eG*eA; antisense) [compound 531196] | 38
531197 (eT*eA*e[5mC]*e[5mC]*eT*dT*dT*dT*d[5mC]*dT*d[5mC]*d[5mC]*dA*dT*dG*eT*e[5mC]*eA*eT*eT; antisense) [compound 531197] | 42
531199 (e[5mC]*eT*eT*eT*eG*dA*dA*dT*dA*dG*dA*dA*dA*dA*dT*eG*eA*e[5mC]*eT*eA; antisense) [compound 531199] | 1
531200 (e[5mC]*eA*eA*eA*eA*dT*d[5mC]*dA*d[5mC]*dA*dA*dG*dT*dT*d[5mC]*eT*eA*eG*eA*eT; antisense) [compound 531200] | 51
531201 (eT*eT*eT*e[5mC]*e[5mC]*dA*dA*dT*dA*d[5mC]*dT*dT*dT*dT*dA*e[5mC]*eA*eA*eA*eT; antisense) [compound 531201] | 52
531202 (eA*eT*eT*eA*eA*dT*dA*dA*dG*d[5mC]*dA*dT*d[5mC]*dT*d[5mC]*eT*e[5mC]*eT*eG*eA; antisense) [compound 531202] | 31
531203 (eT*eG*eA*e[5mC]*eT*dA*dT*d[5mC]*d[5mC]*dA*dA*dT*dT*dT*d[5mC]*eT*eA*eG*eT*eT; antisense) [compound 531203] | 67
531204 (e[5mC]*eT*eT*eG*eT*dA*dG*dT*d[5mC]*dT*dG*d[5mC]*dA*d[5mC]*dT*eT*eA*eA*eT*eG; antisense) [compound 531204] | 60
531205 (eA*e[5mC]*eA*eT*eT*dT*dT*dT*dT*dA*dA*dG*dT*dA*d[5mC]*eA*eG*eG*eA*eA; antisense) [compound 531205] | 0
531206 (eG*eA*eA*eA*eT*dG*dT*d[5mC]*dT*dA*dG*d[5mC]*dA*dT*dT*eT*eT*e[5mC]*eT*eA; antisense) [compound 531206] | 28
531207 (e[5mC]*e[5mC]*eA*e[5mC]*eT*dT*dA*dT*dT*dT*dG*dA*dT*dG*dA*e[5mC]*e[5mC]*eA*e[5mC]*eA; antisense) [compound 531207] | 64
531208 (eT*e[5mC]*e[5mC]*eA*eG*dA*dA*dT*dA*d[5mC]*dT*dG*d[5mC]*d[5mC]*d[5mC]*e[5mC]*eA*eT*e[5mC]*eT; antisense) [compound 531208] | 23
